Patent publication US10669310B2, “Peptide for cancer treatment and pharmaceutical composition containing same” (TOKUSHIMA UNIVERSITY, priority 2016, dated 2020)

Columns and labels:
MCF-7 cells = format: cell-based, human
Method: (§1) Human breast cancer cell line MCF-7 and mammary epithelial cell line MCF-10A were purchased from American Type Culture Collection (ATCC, Manassas, Va., USA). Breast cancer cell line KPL-3C (J. Kurebayashi, et al., Br. J. Cancer 74, 200-207 (1996)) was kindly provided by Dr. Junichi Kurebayashi (Kawasaki Medical School). All cell lines were monolayer cultured in an appropriate medium supplemented with 10% FBS. The cells were maintained at 37° C. under humidified atmosphere containing 5% CO2.
(§2) In each experiment, the respective cells were seeded in a 48-well plate (2×10^4 cells/mL), a 6-well plate (3×10^5 cells/mL), or a 10-cm dish (2×10^6 cells/10 mL). MCF-7 cells were seeded in MEM (Thermo Fisher Scientific) supplemented with 10% FBS (Nichirei Biosciences Inc., Tokyo, Japan), 1% Antibiotic/Antimycotic solution (Thermo Fisher Scientific, Waltham, Mass., USA), 0.1 mM NEAA (Thermo Fisher Scientific), 1 mM sodium pyruvate (Thermo Fisher Scientific), and 10 μg/mL insulin (Sigma, St. Louis, Mo., USA). KPL-3C cells were seeded in RPMI (Thermo Fisher Scientific) supplemented with 10% FBS and 1% Antibiotic/Antimycotic solution. MCF-10A cells were seeded in MEBM (Lonza) supplemented with a Single Quots kit (BPE, hydrocortisone, hEGF, insulin, gentamycin/amphoterin-B) (Lonza, Walkersville, Md., USA) and 100 ng/mL cholera toxin. For 17β-estradiol (E2) (Sigma) stimulation, the media for MCF-7 and KPL-3C were changed to phenol red-free DMEM/F12 (Thermo Fisher Scientific) supplemented with 10% FBS, 1% Antibiotic/Antimycotic solution, 0.1 mM NEAA, 1 mM sodium pyruvate, and 10 μg/mL insulin on the day after seeding. Twenty-four hours later, the cells were treated with 10 nM E2 and a peptide (for example, 11R-ERAP or a stapled ERAP), or with 10 nM E2 alone.
When carrying out treatment with tamoxifen (Sigma) or fulvestrant (LKT laboratories, St. Paul, Minn., USA), cells were treated with 10 nM tamoxifen or 2 μM fulvestrant simultaneously with the above-mentioned treatment with E2 and a peptide or with E2 alone.
Cell growth assays on MCF-7, KPL-3C, and MCF-10A were carried out as described previously using a Cell Counting Kit-8 (CCK-8) (Dojindo, Kumamoto, Japan) (T. Yoshimaru, et al., Nat. Commun. 4, 2443 (2013)). The data are shown by mean±SE of three independent experiments.

MCF-10A cells = assay: Cell growth (MTT) assay, MCF-10A cells; format: cell-based, human; settings: normal mammary epithelial cells, ERα-negative and BIG3-negative
Method: as §1
as §2, with “For 17β-estradiol (E2) (Sigma) stimulation, the media for MCF-7 and KPL-3C were changed to phenol red-free DMEM/F12 (Thermo Fisher Scientific) supplemented with 10% FBS, 1% Antibiotic/Antimycotic solution, 0.1 mM NEAA, 1 mM sodium pyruvate, and 10 μg/mL insulin on the day after seeding. Twenty-four hours later, the cells were treated with 10 nM E2 and a peptide (for example, 11R-ERAP or a stapled ERAP), or with 10 nM E2 alone.” left out

BIG3-PHB2 interaction = target: T1, BIG3-PHB2 interaction (Homo sapiens, UniProt Q99623); assay: Co-immunoprecipitation with anti-BIG3 antibody in MCF-7 cells; format: cell-based; settings: MCF-7, 1 μM, 24 hours after treatment
T1 construct: complex formation between the endogenous BIG3 and PHB2 in ERα-positive breast cancer cell line MCF-7; endogenous in cells; host or cells: MCF-7
T1 sequence (Q99623 2-299 limits assumed): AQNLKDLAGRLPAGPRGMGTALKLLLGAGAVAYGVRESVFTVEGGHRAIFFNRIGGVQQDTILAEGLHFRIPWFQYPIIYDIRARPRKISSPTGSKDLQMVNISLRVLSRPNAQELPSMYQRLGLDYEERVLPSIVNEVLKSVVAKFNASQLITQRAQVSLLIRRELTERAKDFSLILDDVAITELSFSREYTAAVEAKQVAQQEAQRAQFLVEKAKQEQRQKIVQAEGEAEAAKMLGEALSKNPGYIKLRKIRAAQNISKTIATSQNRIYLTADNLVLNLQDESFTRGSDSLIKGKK
Method: Immunoblot analyses were performed as described previously (T. Yoshimaru, et al., Nat. Commun. 4, 2443 (2013)). After performing SDS-PAGE, the membranes blotted with proteins were blocked with 4% BlockAce solution (Dainippon Pharmaceutical, Osaka, Japan) for three hours and then incubated with antibodies against the following proteins: BIG3 (1:1,000) (T. Yoshimaru, et al., Nat. Commun. 4, 2443 (2013)); PHB2 (1:1,000) (Abeam, Cambridge, UK); Akt, phosphorylated Akt (S473) (587F11, 1:1,000); p44/42 MAPK, phosphorylated p44/42 MAPK (T202/Y204) (1:1,000); α/β-tubulin (1:1,000) (Cell Signaling Technology, Danvers, Mass., USA); and LMNB1 (1:100) (Sigma). After incubation with an HRP-labeled secondary antibody (anti-mouse IgG-HRP, 1:5,000; anti-rat IgG-HRP; 1:5,000; or anti-rabbit IgG-HRP, 1:1,000) (Santa Cruz Biotechnology, Dallas, Tex., USA) for one hour, the blots were developed with an Enhanced Chemiluminescence (ECL) system (GE Healthcare, Buckinghamshire, UK) and scanned using an Image Reader LAS-3000 mini (Fujifilm, Tokyo, Japan). All the experiments were performed at least in triplicate.
Immunoprecipitation analysis was performed as described previously (T. Yoshimaru, et al., Nat. Commun. 4, 2443 (2013)). Cell lysates were pre-cleared with normal IgG and rec-Protein G Sepharose 4B (Thermo Fisher Scientific) at 4° C. for three hours. Then, the supernatants were incubated with 5 μg of an antibody against BIG3 or an antibody against PHB2 at 4° C. for twelve hours. Next, the antigen-antibody complexes were precipitated using rec-Protein G Sepharose 4B at 4° C. for one hour. The immunoprecipitated protein complexes were washed several times with a lysis buffer. Then, SDS-PAGE and immunoblot analyses were carried out as described above.

[1] = system: KPL-3C orthotopic breast cancer xenografts; assay: In vivo tumor growth inhibition, KPL-3C orthotopic xenograft, intraperitoneal; set-up: species or system BALB/c nude mice; settings: 1 mg/kg or 0.1 mg/kg i.p. every four or seven days, up to 28 days
Method: KPL-3C cell suspensions (1×10^7 cells/mouse) were mixed with an equal volume of Matrigel (BD) and injected (200 μL in total) into the mammary fat pads of 6-week-old female BALB/c nude mice (Charles River Laboratories, Tokyo, Japan). The mice were housed in a pathogen-free isolation facility with a twelve-hour light/dark cycle and were fed solid rodent chow and water ad libitum. The tumors developed over several days and reached sizes of approximately 100 mm^3 [calculated as ½×(width×length^2)]. The mice were randomized into the following eleven treatment groups (five heads per group):
E2 was administered via application of a solution to the neck skin, and regarding the other treatments, administration was performed via intraperitoneal injection unless other administration methods are stated. The tumor volume was measured with calipers for 28 days, and then the mice were subjected to scheduled sacrifice to remove tumors. All the experiments were performed in accordance with the guidelines of the animal facility at Tokushima University.

[2] = system: ERα target genes TFF1 and CCND1; assay: ERα target gene expression in removed tumors; format: in vivo, BALB/c nude mice; settings: 0.02, 0.1 or 1 mg/kg i.p. every four days or every seven days
Method: The expression of the ERα target genes (TFF1 and CCND1) was evaluated by real-time RT-PCR as described previously (T. Yoshimaru, et al., Nat. Commun. 4, 2443 (2013)). Each sample was normalized to the β2-MG mRNA content, and the results were expressed as multiples (-fold) of the expression level in untreated cells, with that level being defined as 1.0. The data represent the mean±SD of three independent experiments. The primers used for RT-PCR were as follows: […]

In the case of CSCC[C@@H](NC(=O)[C@H]1CCC(=O)NCCCCNC(=O)CC[C@@H](NC(=O)[C@@H](CC(C)C)NC(=O)[C@@H](CCC(N)=O)NC(=O)[C@@H](CC(C)C)NC(=O)[C@@H](CCCNC(=N)N)NC(=O)[C@@H](CCC(N)=O)NC(=O)[C@@H](CCCNC(=N)N)NC(C)=O)C(=O)N[C@H](CC(C)C)C(=O)N[C@H](CC(=O)O)C(=O)N[C@H](CO)C(=O)N1)C(=O)N[C@H](CCC(N)=O)C(N)=O [RI stapled ERAP No. 12], the “duration of significant cell growth inhibitory effects” value (MCF-7 cells; 1 μM, E2-dependent growth of MCF-7) is reported as “seven”, the IC50 (MCF-7 cells; 96 h) is reported as 500 nM and the “effect on MCF-10A cell growth” value (MCF-10A cells) is reported as “not inhibited”. The “inhibition of endogenous BIG3-PHB2 complex formation” value (BIG3-PHB2 interaction) was “inhibited endogenous BIG3-PHB2 complex formation”, the E2-dependent tumor growth [1] was “almost fully inhibited” and the “E2-dependent expression of TFF1 and CCND1 in tumors” value [2] was “significantly suppressed”.
